According to patent publication US20230257385A1, “SALT AND SOLID FORMS OF TABERNANTHALOG” (priority 2021, published 2023):

What was measured:
[1] = SIF buffer solubility panel (FaSSIF, FeSSIF, FaSSGF); type: physicochemical; settings: 37° C., up to 24 h (timepoints t=0, 1 h, 3 h, 6 h, 24 h)
[2] = DVS 0 to 90 to 0% RH (mass equilibrated); type: physicochemical
[3] = Thermal study: glass transition temperature (Tg) of amorphous monofumarate and sorbate; type: physicochemical
Protocol: Each salt was analysed by DSC and TGA to determine the Tg of the amorphous form. Amorphous forms were generated by thermocycling the salt past the melt temperature, cooling the sample, and once cooled the samples were reheated. Open pan and sealed pan DSC were utilised, open pan DSC were heated past the melt event, cooled, and left to stand under ambient conditions overnight.
Sealed pans were immediately cycled with no time left to stand.
TGA (open pan) samples were analysed by thermocycle, with no time for the sample to stand under ambient conditions.
The amorphous forms were generated in these studies and characterised with their Tg being measured.
A hot stage microscope heating block was used to generate the amorphous phase in-situ, to allow analysis by XRPD. A silicon XRPD sample plate was loaded with the appropriate salt. The plate was heated past the melt event, removed from the hot stage microscope block and cooled to ambient in air and analysed by XRPD to ensure that the amorphous form was generated. The amorphous material was then analysed by ^1H NMR and LC-MS to ensure there was no change in chemical composition.
Two DSC pans were charge with the appropriate salt (Tabernanthalog·Sorbate, A1270−076-A1 and Tabernanthalog·Monofumarate, Tabernanthalog·Monofumarate), the first DSC pan was not sealed (open pan DSC), the second was sealed (hermetic sealed pan DSC). The open pan DSC was cycled from 20° C. to just after the melt event for each, cooled to −20° C. and left to stand under ambient conditions over night. The open pan DSC was then heated to just before the thermal degradation event (Tabernanthalog·Sorbate ca. 160° C., Tabernanthalog·Monofumarate ca. 210° C.) The hermetic sealed DSC was heated from 20° C. to just after the melt event, cooled to −20° C. then headed to just before the same degradation event.
Two TGA crucibles were charged with the appropriate salt (Tabemanthalog·Sorbate, A1270-076-A1, Tabernanthalog·Monofumarate, Tabernanthalog·Monofumarate), both were thermocycled from 20° C. to past the melt event and then cooled to −20° C., each pan was then immediately heated to just before the degradation event to measure the Tg event.

[4] = Amorphous study (freeze drying, evaporation, spray drying, bead milling) of monofumarate and sorbate; type: physicochemical; settings: 50 mg
Text: The purpose of this study was to generate amorphous material to be characterized and used in water activity studies. To achieve this, the two salts were exposed to a variety of techniques in attempts to generate the amorphous forms, including freeze drying, evaporation, vacuum desiccation and cryodesiccation spray drying. These techniques were not successful for the two salts Tabernanthalog·Monofumarate and Tabernanthalog·Sorbate.
Bead milling was attempted to generate the amorphous form of Tabernanthalog·Sorbate (Tabernanthalog·Sorbate, Form A). The salt underwent neat milling and separately with the addition of tetradecafluorohexane (TDFH). The following experiments were performed: Experiment 6-Sample A1 (30 Hz, 2 h), Experiment 6-Sample A2 (30 Hz, 5.5 h) and Experiment 6-Sample A3 (30 Hz 1 h, TDFH), the products from each experiment was analysed by XRPD to determine the extent of crystallinity (FIG. 812). None of the experiments provided amorphous material.
Each salt was charged to a 7 ml vial (50 mg, 1.0 wt). To the vial containing Tabernanthalog·Monofumarate (Tabernanthalog·Monofumarate), was charged water (10.0 vol), to fully dissolve the sample. Tabernanthalog·Sorbate (A1270-076-A1) was taken-up in ethanol/water (15% v/v, 10 vol), a further charge of water (1.0 ml), was added to ensure that the sample dissolved.
Vials containing the salt solutions were placed on the freeze drier apparatus overnight, and the cryo-desiccated products were recovered the following morning and analysed by XRPD each product remained crystalline.
Tabernanthalog·Monofumarate (A1272−082-A2, 51.1 mg, 1.0 wt) was charged to a 7 ml scintillation vial followed by THE (2 ml, […]), the suspension was heated to 50° C., until full dissolution was observed. The vial was stoppered by foil and a pin hole was pierced in the top. The vial was located under a steady N2 stream.
Tabernanthalog·Sorbate (A1270−076-A1, 99.4 mg, 1.0 wt) was charged to a 7 ml scintillation vial, followed by hexafluoroisopropanol (HFIPA, 5.0 vol, 0.5 ml), after which, the sample fully dissolved. The cap was replaced by foil and pierced on the top. Solvent was allowed to evaporate, to afford a dry, brown solid that was analysed by XRPD yielding crystalline pattern #7. Sample were dried under N2 stream for 5 h and reanalysed by XRPD, remaining as pattern #7
Tabernanthalog·Sorbate (A1270−076-A1, 50.0 mg, 1.0 wt) was charged to a 7 ml scintillation vial followed by hexafluoroisopropanol (HFIPA, 0.5 ml, 10 vol), to yield a clear solution. The solution was concentrated to dryness, by rotary evaporation, yielding an oil, that was allowed to stand undisturbed overnight.
Tabernanthalog·Sorbate (A1270−076-A1, 50.0 mg, 1.0 wt) was charged to a 7 ml scintillation vial, followed by methanol (300 μl, 6.0 vol). The solution was clarified by filtration into a 7 ml scintillation vial, containing diethyl ether (1.0 ml, 20.0 vol).
Tabernanthalog·Sorbate (A1270−076-A1, 102 mg, 1 wt) was charged to a 7.0 ml scintillation vial followed by methanol (1.9 ml, 19.0 vol). The solution was loaded into the spray drier apparatus.
The procedure yielded a brown powder (30 mg, 30% th.).
Tabernanthalog·Sorbate (A1270-076-A1, Form A) was charged to a 1.5 ml steel milling-vessel with a single 5 mm ball bearing. The sample was milled for 5.5 h at 30 Hz and yielded an off-white powder, that was analysed by XRPD, no change in crystallinity.

[5] = Dynamic vapour sorption (DVS) of selected salts (Example 8); type: physicochemical; settings: 0 to 90 to 0% RH, 25° C., dm/dt 0.002%/min
Protocol: DVS: The moisture sorption properties of the feed API were analyzed by DVS Intrinsic instrument (Surface Measurement System). Approximately 20-50 mg of API was weighed on an aluminum pan and loaded into the instrument equilibrated at 25° C. The sample was allowed to equilibrate under dry atmosphere (0% relative humidity) for 60 minutes before increasing the humidity from 0% to 30% at 5% step increment and from 30% to 90% at 10% step increment. A desorption cycle was also applied from 90% to 30% (10% step) and from 30% to 0% (5% decrement). A rate of change in mass per time unit (dm/dt) of 0.002%/min was set as the equilibrium parameter. Kinetic and isotherm graphs were calculated.

[6] = Solubility determinations in SIF buffers FaSSIF, FeSSIF, FaSSGF (Example 8, Experiment 5)
Protocol: The temperature was maintained at 37° C. for 24 h. […] The suspensions were sampled at the relevant time points and centrifuged. The centrifuged pellets, obtained at the time points were analysed by XRPD as a wet pellet and dried, for evidence of form change.
The temperature was maintained at 37° C. for 24 h.
The suspension was sampled at the relevant time points and centrifuged. […] The centrifuged pellets, obtained at the time points were analyzed by XRPD as a wet pellet and dried, for evidence of form change.

[7] = Equilibrium humidity evaluation 75% RH/40° C., 10 days (Example 8, Experiment 6); type: physicochemical
Protocol: The experimental procedure that accompany this experiment is provided in Section G.ii.
All forms were maintained under constant equilibrium humidity (75% RH). XRPD, DSC, TGA, PLM and ^1H NMR analyses were performed on the absorbents at t=5 d and t=10 d, to confirm their physical fates and to determine the extent of residual solvent exchange or sequestration.
100 mg portions of Tabernanthalog salts ([…]) were placed in the relevant open vials. The powders were finely divided and distributed evenly over the base of the vial, such that equal material coverage across the panel was observed. These samples were then maintained 40° C. under 75% RH. The samples were sub-sampled at intervals of 5 and 10 days and analyzed by ^1H NMR, HPLC, XRPD, DSC, TGA and PLM, for evidence of phase change or chemical degradation.

[8] = Amorphisation activity: Crash cool
[9] = Amorphisation activity: Freeze dry
[10] = each timepoint up to 24 h, 37° C.

## COc1ccc2c3c([nH]c2c1)CCN(C)CC3 [Pattern #6a (Form A)]
[1]
  solubility in FaSSGF: soluble
  solubility in FaSSIF: soluble
  solubility in FeSSIF: soluble
[2]; desorption, 0.0% RH
  DVS 0 to 90 to 0% RH (dm/dt <0.002%): 0.0381%
[2]; desorption, 5.0% RH
  DVS 0 to 90 to 0% RH (dm/dt <0.002%): 0.1179%
[2]; desorption, 10.0% RH
  DVS 0 to 90 to 0% RH (dm/dt <0.002%): 0.1551%
[2]; desorption, 15.0% RH
  DVS 0 to 90 to 0% RH (dm/dt <0.002%): 0.1857%
[2]; desorption, 20.0% RH
  DVS 0 to 90 to 0% RH (dm/dt <0.002%): 0.2126%
[2]; desorption, 25.0% RH
  DVS 0 to 90 to 0% RH (dm/dt <0.002%): 0.2387%
[2]; desorption, 30.0% RH
  DVS 0 to 90 to 0% RH (dm/dt <0.002%): 0.2656%
[2]; desorption, 40.0% RH
  DVS 0 to 90 to 0% RH (dm/dt <0.002%): 0.3210%
[2]; desorption, 50.0% RH
  DVS 0 to 90 to 0% RH (dm/dt <0.002%): 0.3797%
[2]; desorption, 60.0% RH
  DVS 0 to 90 to 0% RH (dm/dt <0.002%): 0.4515%
[2]; desorption, 70.0% RH
  DVS 0 to 90 to 0% RH (dm/dt <0.002%): 0.5442%
[2]; desorption, 80.0% RH
  DVS 0 to 90 to 0% RH (dm/dt <0.002%): 0.6827%
[2]; desorption, 90.0% RH
  DVS 0 to 90 to 0% RH (dm/dt <0.002%): 0.9766%
[2]; sorption, 0.0% RH
  DVS 0 to 90 to 0% RH (dm/dt <0.002%): 0.0004%
[2]; sorption, 5.0% RH
  DVS 0 to 90 to 0% RH (dm/dt <0.002%): 0.0627%
[2]; sorption, 10.0% RH
  DVS 0 to 90 to 0% RH (dm/dt <0.002%): 0.0957%
[2]; sorption, 15.0% RH
  DVS 0 to 90 to 0% RH (dm/dt <0.002%): 0.1397%
[2]; sorption, 20.0% RH
  DVS 0 to 90 to 0% RH (dm/dt <0.002%): 0.1778%
[2]; sorption, 25.0% RH
  DVS 0 to 90 to 0% RH (dm/dt <0.002%): 0.2093%
[2]; sorption, 30.0% RH
  DVS 0 to 90 to 0% RH (dm/dt <0.002%): 0.2401%
[2]; sorption, 40.0% RH
  DVS 0 to 90 to 0% RH (dm/dt <0.002%): 0.3145%
[2]; sorption, 50.0% RH
  DVS 0 to 90 to 0% RH (dm/dt <0.002%): 0.4051%
[2]; sorption, 70.0% RH
  DVS 0 to 90 to 0% RH (dm/dt <0.002%): 0.5451%
[2]; sorption, 80.0% RH
  DVS 0 to 90 to 0% RH (dm/dt <0.002%): 0.6660%
[2]; sorption, 90.0% RH
  DVS 0 to 90 to 0% RH (dm/dt <0.002%): 0.9766%

## COc1ccc2c3c([nH]c2c1)CCN(C)CC3.O=C(O)/C=C/C(=O)O [Tabernanthalog•Monofumarate]
[3]; Hot plate heat up, sorbate 20 to 170 ° C., monofumarate 20 to 210 ° C.
  Outcome: Amorphous
[3]; Hot stage plate heat up, sorbate 20 to 170 ° C., monofumarate 20 to 210 ° C.
  Outcome: Almost Amorphous
[3]; Open Pan DSC, sorbate 20 to 165 to −20, O/N 20 to 230 ° C., monofumarate 20 to 210 to −20, O/N 20 to 210 ° C.
  Outcome: Amorphous
[3]; Sealed DSC, sorbate 20 to 165 to −20 to 230 ° C., monofumarate 20 to 210 to −20 to 210 ° C.
  Outcome: Amorphous
[3]; TGA, sorbate 20 to 165 to −20 to 230 ° C., monofumarate 20 to 210 to −20 to 210 ° C.
  Outcome: Amorphous
[3]; amorphous form generated in situ, sealed DSC thermocycle (Sample B1)
  Glass temperature (Tgs): 63 °C
[4]; [8]
  Form by XRPD: Pattern #3
  Outcome: Crystalline
[4]; [9]
  Form by XRPD: Pattern #1
  Outcome: Crystalline
[4]; Amorphisation activity: THF/N2
  Form by XRPD: Pattern #11
  Outcome: Crystalline

## COc1ccc2c3c([nH]c2c1)CCN(C)CC3.O=C(O)c1ccccc1 [tabernanthalog benzoate salt]
[5]
  DVS sorption/desorption isotherm: slightly hygroscopic
[6]; FaSSIF, FeSSIF, FaSSGF, 37° C., 24 h
  behaviour at 30 mg/ml in SIF buffers: precipitated in all three SIF buffers
[6]; [10]
  stability of the suspended phase in FaSSIF (XRPD of pellet): stable and did not disproportionate in FaSSIF
  stability of the suspended phase in FeSSIF (XRPD of pellet): stable and did not disproportionate in FeSSIF
[6]; over the time points up to 24 h
  decrease in chemical purity of wet pellets in FaSSIF: ca. 1.22 % area
[6]; up to 24 h, 37° C.
  fate of the suspended phase in FaSSGF (XRPD, 1H NMR): consistent with benzoic acid
[1]
  solubility in FaSSGF: all dissolved except the tabernanthalog benzoate salt
  solubility in FaSSIF: all dissolved except the tabernanthalog benzoate salt
  solubility in FeSSIF: all dissolved except the tabernanthalog benzoate salt
[7]; 75% RH/40° C., after 10 days
  change in chemical purity (trended HPLC): did not decrease significantly
[7]; 75% RH/40° C., t=5 d and t=10 d
  water uptake / hydrate formation (TGA, DSC): no significant water uptake
[7]; 75% RH/40° C., t=5 days and t=10 days
  powder diffraction pattern versus input (form stability): consistent with the input
[7]; Benzoate salt, input before humidity exposure
  Tabernanthalog RRT = 1.00 (trended HPLC data, chemical purity): 98.56
